Patent US20240101576A1, “HETEROCYCLIC INHIBITORS OF EGFR AND/OR HER2, FOR USE IN THE TREATMENT OF CANCER” (Scorpion Therapeutics, Inc., priority 2020, published 2024)

How the values were obtained:
Format in all cases: cell-based
[1] = molecular target: T1, EGFR WT (Ba/F3 cells) (Homo sapiens, UniProt P00533); assay: Inhibitor activity on EGFR-dependent cell growth (CellTiter-Glo, 72 h), Ba/F3 EGFR WT; details: read-out: BaF3 WT IC50
T1 construct: expressed in transfected cells; host or cells: Ba/F3 (murine pro-B cells), retroviral transduction, puromycin selection, maintained with EGF
T1 sequence (P00533 25-1210): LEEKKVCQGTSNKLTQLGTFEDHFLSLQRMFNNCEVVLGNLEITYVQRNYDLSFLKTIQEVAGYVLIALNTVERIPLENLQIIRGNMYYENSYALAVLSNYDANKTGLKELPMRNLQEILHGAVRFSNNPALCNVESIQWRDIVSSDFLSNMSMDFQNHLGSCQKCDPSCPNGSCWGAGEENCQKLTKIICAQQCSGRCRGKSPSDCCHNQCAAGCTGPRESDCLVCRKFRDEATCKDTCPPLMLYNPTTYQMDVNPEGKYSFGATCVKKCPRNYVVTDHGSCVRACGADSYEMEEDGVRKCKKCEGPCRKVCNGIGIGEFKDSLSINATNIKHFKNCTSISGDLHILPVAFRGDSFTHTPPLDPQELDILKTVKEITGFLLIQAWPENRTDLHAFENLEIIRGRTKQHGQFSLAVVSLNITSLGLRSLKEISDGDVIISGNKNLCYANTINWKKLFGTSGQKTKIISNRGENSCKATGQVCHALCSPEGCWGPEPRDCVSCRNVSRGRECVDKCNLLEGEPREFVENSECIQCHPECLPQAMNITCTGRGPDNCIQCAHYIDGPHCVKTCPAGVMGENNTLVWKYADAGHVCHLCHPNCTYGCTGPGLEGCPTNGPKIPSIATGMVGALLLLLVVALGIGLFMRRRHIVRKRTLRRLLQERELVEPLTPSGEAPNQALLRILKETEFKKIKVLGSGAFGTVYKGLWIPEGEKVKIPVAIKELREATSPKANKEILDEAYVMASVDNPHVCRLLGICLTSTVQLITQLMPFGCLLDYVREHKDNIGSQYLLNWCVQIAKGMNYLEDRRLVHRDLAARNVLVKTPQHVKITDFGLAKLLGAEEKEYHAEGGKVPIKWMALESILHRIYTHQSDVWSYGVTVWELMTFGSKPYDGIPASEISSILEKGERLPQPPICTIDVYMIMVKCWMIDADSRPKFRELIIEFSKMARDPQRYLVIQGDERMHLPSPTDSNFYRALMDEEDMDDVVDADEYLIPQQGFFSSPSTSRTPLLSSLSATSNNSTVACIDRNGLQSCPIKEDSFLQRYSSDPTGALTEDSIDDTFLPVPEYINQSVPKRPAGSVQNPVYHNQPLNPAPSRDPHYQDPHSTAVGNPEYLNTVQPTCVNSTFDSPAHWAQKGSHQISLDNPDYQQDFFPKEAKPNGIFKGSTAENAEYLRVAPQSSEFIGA
Method in brief: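 This growth assay used Ba/F3 cells that depend on wild-type EGFR and are kept in EGF without IL3. Compounds were made up as 10 mM DMSO stocks and diluted 3-fold over 10 points. 120 nL went onto 600 cells/well. After 72 hours, 40 μL CellTiter-Glo was added and luminescence read on EnVision after 30 min.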

[2] = molecular target: T2, EGFR exon 20 NPG Ins D770_N771 (Ba/F3 cells) (Homo sapiens, UniProt P00533, INS770NPG); assay: Inhibitor activity on EGFR-dependent cell growth (CellTiter-Glo, 72 h), Ba/F3 EGFR exon 20 NPG Ins; details: read-out: BaF3 NPG IC50
T2 construct: expressed in transfected cells; host or cells: Ba/F3 (murine pro-B cells), retroviral transduction, puromycin selection, IL3-independent pool
T2 sequence (P00533 with tags, fused parts or gaps INS770NPG): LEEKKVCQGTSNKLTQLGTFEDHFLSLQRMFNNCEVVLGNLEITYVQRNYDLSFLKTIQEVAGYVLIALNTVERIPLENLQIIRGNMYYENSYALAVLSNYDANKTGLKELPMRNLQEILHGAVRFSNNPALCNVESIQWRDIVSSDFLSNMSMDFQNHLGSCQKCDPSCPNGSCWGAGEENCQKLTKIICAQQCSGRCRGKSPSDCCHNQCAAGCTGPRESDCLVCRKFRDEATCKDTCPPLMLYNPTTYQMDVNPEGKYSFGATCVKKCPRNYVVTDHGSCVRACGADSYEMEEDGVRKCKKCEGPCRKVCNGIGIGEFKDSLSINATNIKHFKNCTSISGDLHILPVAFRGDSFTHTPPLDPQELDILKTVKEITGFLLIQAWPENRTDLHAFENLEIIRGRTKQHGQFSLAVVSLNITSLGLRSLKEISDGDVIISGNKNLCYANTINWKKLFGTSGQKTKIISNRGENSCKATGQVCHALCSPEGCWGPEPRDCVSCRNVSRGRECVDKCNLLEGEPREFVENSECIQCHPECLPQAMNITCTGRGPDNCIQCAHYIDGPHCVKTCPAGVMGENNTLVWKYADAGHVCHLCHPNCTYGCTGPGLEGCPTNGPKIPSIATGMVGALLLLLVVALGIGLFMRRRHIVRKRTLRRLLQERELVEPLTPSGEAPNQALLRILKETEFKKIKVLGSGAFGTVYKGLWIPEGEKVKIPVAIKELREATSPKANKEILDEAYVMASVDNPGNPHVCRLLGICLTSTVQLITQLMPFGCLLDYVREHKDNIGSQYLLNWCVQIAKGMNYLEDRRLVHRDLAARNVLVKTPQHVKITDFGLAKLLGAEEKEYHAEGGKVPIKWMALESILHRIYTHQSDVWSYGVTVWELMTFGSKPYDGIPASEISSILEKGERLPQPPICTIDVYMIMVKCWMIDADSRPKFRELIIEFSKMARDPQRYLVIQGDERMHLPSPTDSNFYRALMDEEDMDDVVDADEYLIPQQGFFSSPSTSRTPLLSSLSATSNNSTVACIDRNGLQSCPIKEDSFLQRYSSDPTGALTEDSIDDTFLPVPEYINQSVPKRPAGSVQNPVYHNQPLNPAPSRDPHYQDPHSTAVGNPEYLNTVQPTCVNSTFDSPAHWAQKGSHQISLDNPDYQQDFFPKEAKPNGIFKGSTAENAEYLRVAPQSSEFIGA
Text: Example A. Inhibitor Activity on EGFR-Dependent Cell Growth
Cell lines are generated by transducing Ba/F3 cells with retroviruses containing vectors with EGFR WT, EGFR L858R, EGFR exon 19del, EGFR L858R/C797S, EGFR exon 20 NPG Ins D770_N771, EGFR exon 20 ASV Ins V769_D770, EGFR exon 20 SVD Ins D770_N771, or EGFR exon 20 FQEA Ins A763_V764 genes and a puromycin selection marker. Transduced cells are selected with puromycin for 7 days and are then be transferred into culture media without Interleukin 3 (IL3). EGFR WT cells are maintained with supplemental EGF. Surviving cells are confirmed to express EGFR by Western blot and maintained as a pool. The IC50 date were included in Table 6 and Table 7.
1.1 Cells are harvested from flask into cell culture medium and the cell number counted.
1.2 Cells are diluted with culture medium to the desired density and 40 μL of cell suspension is added into each well of 384-well cell culture plate and the seeding density is 800 (FQEA, exon 19del), 600 (WT, NPG, L858R/C797S), or 400 (ASV, SVD, L858R) cells/well.
2 Compound Preparation and Treatment
2.1 Test compounds are dissolved to 10 mM in a DMSO stock solution. 45 μL of stock solution is transferred to a 384 polypropylene plate (pp-plate). Perform 3-fold, 10-point dilution via transferring 15 μL compound into 30 μL DMSO using a TECAN (EVO200) liquid handler.
2.2 Spin plates at room temperature at 1,000 RPM for 1 minute.
2.3 Transfer 120 nL of diluted compound from compound source plate into the cell plate.
2.4 After compound treatment for 72 hours, perform CTG detection for compound treatment plates as described in “Detection” section.
3.1 Plates are removed from incubators and equilibrated at room temperature for 15 minutes.
3.2 Thaw the CellTiter Glo reagents and allow to equilibrate to room temperature before the experiment.
3.3 Add 40 μL of CellTiter-Glo reagent into each well (at 1:1 to culture medium). Then place the plates at room temperature for 30 min followed by reading on EnVision.
4.1 Inhibition activity is calculated following the formula below:
% Inhibition=100×(LumHC−LumSample)/(LumHC−LumLC) • where HC is obtained from cells treated with 0.1% DMSO only; and LC is obtained from culture medium only.
4.2 2. Calculate the IC50 by fitting the Curve using Xlfit (v5.3.1.3), equation 201.
Y=Bottom+(Top−Bottom)/(1+10^((Log IC50−X)*HillSlope))

[3] = molecular target: T3, EGFR exon 20 ASV Ins V769_D770 (Ba/F3 cells) (Homo sapiens, UniProt P00533, INS769ASV); assay: Inhibitor activity on EGFR-dependent cell growth (CellTiter-Glo, 72 h), Ba/F3 EGFR exon 20 ASV Ins; details: read-out: BaF3 ASV IC50
T3 construct: expressed in transfected cells; host or cells: Ba/F3 (murine pro-B cells), retroviral transduction, puromycin selection, IL3-independent pool
T3 sequence (P00533 with tags, fused parts or gaps INS769ASV): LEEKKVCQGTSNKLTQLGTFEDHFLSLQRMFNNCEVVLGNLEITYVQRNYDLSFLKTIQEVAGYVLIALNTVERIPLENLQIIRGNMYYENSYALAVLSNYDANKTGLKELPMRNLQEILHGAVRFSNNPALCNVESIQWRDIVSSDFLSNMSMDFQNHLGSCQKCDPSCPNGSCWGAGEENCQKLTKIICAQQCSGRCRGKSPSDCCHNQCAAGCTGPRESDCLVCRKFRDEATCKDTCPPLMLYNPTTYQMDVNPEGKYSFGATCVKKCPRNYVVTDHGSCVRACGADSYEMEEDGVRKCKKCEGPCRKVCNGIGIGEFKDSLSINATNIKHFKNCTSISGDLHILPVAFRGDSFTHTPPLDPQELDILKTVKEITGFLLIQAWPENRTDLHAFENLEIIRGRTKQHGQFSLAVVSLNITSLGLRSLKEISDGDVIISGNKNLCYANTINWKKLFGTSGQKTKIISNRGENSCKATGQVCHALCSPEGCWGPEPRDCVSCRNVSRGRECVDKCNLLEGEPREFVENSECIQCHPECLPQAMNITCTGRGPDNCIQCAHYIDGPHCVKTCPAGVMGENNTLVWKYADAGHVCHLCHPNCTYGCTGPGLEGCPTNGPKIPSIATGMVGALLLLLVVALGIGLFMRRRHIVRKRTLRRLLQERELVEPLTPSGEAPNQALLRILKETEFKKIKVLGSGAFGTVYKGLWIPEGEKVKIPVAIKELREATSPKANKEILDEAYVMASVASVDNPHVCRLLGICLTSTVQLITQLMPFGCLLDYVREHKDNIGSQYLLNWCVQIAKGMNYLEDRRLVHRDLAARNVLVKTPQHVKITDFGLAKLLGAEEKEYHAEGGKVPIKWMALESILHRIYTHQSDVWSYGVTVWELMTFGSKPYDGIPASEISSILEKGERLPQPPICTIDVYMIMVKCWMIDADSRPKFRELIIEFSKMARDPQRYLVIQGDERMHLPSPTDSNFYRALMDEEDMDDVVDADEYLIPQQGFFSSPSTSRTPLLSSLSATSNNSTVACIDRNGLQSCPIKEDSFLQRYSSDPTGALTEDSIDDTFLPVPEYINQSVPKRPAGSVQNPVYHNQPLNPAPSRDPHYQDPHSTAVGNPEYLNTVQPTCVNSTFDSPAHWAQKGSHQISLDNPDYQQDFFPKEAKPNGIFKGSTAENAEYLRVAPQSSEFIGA
Method in brief: (§1)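 IC50s derive from a sigmoidal dose–response fit of CellTiter-Glo signal. The signal was normalised between […]-treated cells and cell-free medium. Ba/F3 mutant-EGFR cells, seeded at 400–800/well depending on the line, had 72 h of exposure to a 10-point, 3-fold compound series.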

[4] = molecular target: T4, EGFR exon 20 SVD Ins D770_N771 (Ba/F3 cells) (Homo sapiens, UniProt P00533, INS770SVD); assay: Inhibitor activity on EGFR-dependent cell growth (CellTiter-Glo, 72 h), Ba/F3 EGFR exon 20 SVD Ins; details: read-out: BaF3 SVD IC50
T4 construct: expressed in transfected cells; host or cells: Ba/F3 (murine pro-B cells), retroviral transduction, puromycin selection, IL3-independent pool
T4 sequence (P00533 with tags, fused parts or gaps INS770SVD): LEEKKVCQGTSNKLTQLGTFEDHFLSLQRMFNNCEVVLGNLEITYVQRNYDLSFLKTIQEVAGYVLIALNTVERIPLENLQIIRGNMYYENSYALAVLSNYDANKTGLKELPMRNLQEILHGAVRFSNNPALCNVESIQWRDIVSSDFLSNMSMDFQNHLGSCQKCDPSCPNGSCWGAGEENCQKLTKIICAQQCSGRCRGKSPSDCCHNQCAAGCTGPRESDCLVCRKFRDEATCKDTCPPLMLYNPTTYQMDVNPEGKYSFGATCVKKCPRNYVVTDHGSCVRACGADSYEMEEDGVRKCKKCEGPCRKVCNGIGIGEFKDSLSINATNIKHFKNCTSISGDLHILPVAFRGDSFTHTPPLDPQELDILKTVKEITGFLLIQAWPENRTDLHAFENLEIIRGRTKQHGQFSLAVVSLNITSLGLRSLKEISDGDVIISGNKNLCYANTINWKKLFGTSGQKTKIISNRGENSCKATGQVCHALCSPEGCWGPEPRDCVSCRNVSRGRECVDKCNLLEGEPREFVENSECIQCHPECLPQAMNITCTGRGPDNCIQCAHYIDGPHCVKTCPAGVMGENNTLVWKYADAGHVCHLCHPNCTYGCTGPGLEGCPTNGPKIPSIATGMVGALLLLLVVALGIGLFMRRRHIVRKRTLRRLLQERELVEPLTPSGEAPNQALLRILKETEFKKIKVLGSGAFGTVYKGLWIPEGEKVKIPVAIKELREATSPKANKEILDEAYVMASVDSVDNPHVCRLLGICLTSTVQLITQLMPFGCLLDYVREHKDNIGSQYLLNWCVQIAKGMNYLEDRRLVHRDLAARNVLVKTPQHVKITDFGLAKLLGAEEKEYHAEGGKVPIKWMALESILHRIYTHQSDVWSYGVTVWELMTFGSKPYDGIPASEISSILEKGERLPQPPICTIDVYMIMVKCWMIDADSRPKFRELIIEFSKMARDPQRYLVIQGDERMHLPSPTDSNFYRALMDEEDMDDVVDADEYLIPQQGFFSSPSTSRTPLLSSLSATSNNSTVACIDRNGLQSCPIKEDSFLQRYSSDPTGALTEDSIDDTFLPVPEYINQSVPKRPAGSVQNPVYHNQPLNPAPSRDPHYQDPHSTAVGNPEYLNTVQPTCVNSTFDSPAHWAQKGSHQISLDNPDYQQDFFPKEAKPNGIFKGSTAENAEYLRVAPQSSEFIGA
Method in brief: as §1

[5] = molecular target: T5, EGFR exon 20 FQEA Ins A763_V764 (Ba/F3 cells) (Homo sapiens, UniProt P00533, INS763FQEA); assay: Inhibitor activity on EGFR-dependent cell growth (CellTiter-Glo, 72 h), Ba/F3 EGFR exon 20 FQEA Ins; details: read-out: BaF3 FQEA IC50
T5 construct: expressed in transfected cells; host or cells: Ba/F3 (murine pro-B cells), retroviral transduction, puromycin selection, IL3-independent pool
Method in brief: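 For each mutant line, growth depends on EGFR signalling in the absence of IL3. Density per well: 400 for L858R, 600 for the C797S double mutant, 800 for exon 19del and FQEA. Ten threefold dilutions were applied for 72 h. %Inhibition = 100×(DMSO − sample)/(DMSO − medium blank).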

Structure (SMILES)	IC50 [1]	IC50 [2]	IC50 [3]	IC50 [4]	IC50 [5]
COc1c(Cl)cccc1Nc1c(-c2ccncc2F)[nH]c2c1C(=O)NCC2C[C@@H]1CO[C@@H](CN(C)C)CO1 (single isomer, unassigned) [Compound 563, (7R*)-3-[(3-chloro-2-methoxyphenyl)amino]-7-{[(2R,5S)-5-[(dimethylamino)methyl]-1,4-dioxan-2-yl]methyl}-2-(3-fluoropyridin-4-yl)-1H,5H,6H,7H-pyrrolo[3,2-c]pyridin-4-one]	> 1000 nM	100 to 1000 nM	100 to 1000 nM	100 to 1000 nM	
COc1c(Cl)cccc1Nc1c(-c2ccncc2F)[nH]c2c1C(=O)NCC2C[C@H]1CO[C@H](CN(C)C)CO1 (single isomer, unassigned) [Compound 564, (7R*)-3-[(3-chloro-2-methoxyphenyl)amino]-7-{[(2S,5R)-5-[(dimethylamino)methyl]-1,4-dioxan-2-yl]methyl}-2-(3-fluoropyridin-4-yl)-1H,5H,6H,7H-pyrrolo[3,2-c]pyridin-4-one]	> 1000 nM	100 to 1000 nM	100 to 1000 nM	100 to 1000 nM	
COc1c(Cl)cccc1Nc1c(-c2ccncn2)[nH]c2c1C(=O)NCC2C[C@H]1COCCO1 (single isomer, unassigned) [Compound 574, (7R*)-3-[(3-chloro-2-methoxyphenyl)amino]-7-[(2S)-1,4-dioxan-2-ylmethyl]-2-(pyrimidin-4-yl)-1H,5H,6H,7H-pyrrolo[3,2-c]pyridin-4-one]	> 1000 nM	< 100 nM			
COc1c(F)cccc1Nc1c(-c2ccnc(C)n2)[nH]c2c1C(=O)NCC2C[C@H]1COCCO1 (single isomer, unassigned) [Compound 603]	> 1000 nM	< 100 nM	< 100 nM	< 100 nM	
COc1c(F)cccc1Nc1c(-c2ccnc(C)n2)[nH]c2c1C(=O)NCC2C[C@@H]1COCCO1 (single isomer, unassigned) [Compound 605]	> 1000 nM	100 to 1000 nM	100 to 1000 nM	100 to 1000 nM	
C=CC(=O)N1CCC2(CC1)CNC(=O)c1c2[nH]c(-c2ccnc(N)n2)c1Nc1cccc(F)c1OC [Compound 162, 1-acryloyl-2′-(2-aminopyrimidin-4-yl)-3′-((3-fluoro-2-methoxyphenyl)amino)-5′,6′-dihydrospiro[piperidine-4,7′-pyrrolo[3,2-c]pyridin]-4′(1′H)-one]	100 to 1000 nM	100 to 1000 nM	< 100 nM	100 to 1000 nM	
C=CC(=O)N1CCC2(CC1)CNC(=O)c1c2[nH]c(-c2ccncn2)c1Nc1cccc(Cl)c1OC [Compound 478, 3′-[(3-chloro-2-methoxyphenyl)amino]-1-(prop-2-enoyl)-2′-(pyrimidin-4-yl)-5′,6′-dihydro-1′H-spiro[piperidine-4,7′-pyrrolo[3,2-c]pyridin]-4′-one]	< 100 nM	< 100 nM	< 100 nM	< 100 nM	
COc1c(Cl)cccc1Nc1c(-c2ccncn2)[nH]c2c1C(=O)NC[C@@H]2C[C@@H]1COCCO1 [Compound 528, (7S)-3-[(3-chloro-2-methoxyphenyl)amino]-7-[(2R)-1,4-dioxan-2-ylmethyl]-2-(pyrimidin-4-yl)-1H,5H,6H,7H-pyrrolo[3,2-c]pyridin-4-one]	> 1000 nM	< 100 nM			
COc1c(F)cccc1Nc1c(-c2ccncn2)[nH]c2c1C(=O)NC[C@@H]2C[C@@H]1COCCO1 [Compound 529, (7S)-7-[(2R)-1,4-dioxan-2-ylmethyl]-3-[(3-fluoro-2-methoxyphenyl)amino]-2-(pyrimidin-4-yl)-1H,5H,6H,7H-pyrrolo[3,2-c]pyridin-4-one]	> 1000 nM	100 to 1000 nM	100 to 1000 nM	100 to 1000 nM	
COCCOc1cncnc1-c1[nH]c2c(c1Nc1cccc(F)c1OC)C(=O)NCC2 [Compound 676, 3-[(3-fluoro-2-methoxyphenyl)amino]-2-[5-(2-methoxyethoxy)pyrimidin-4-yl]-1H,5H,6H,7H-pyrrolo[3,2-c]pyridin-4-one]	> 1000 nM	> 1000 nM			
COc1ccc2ncc(F)c(-c3[nH]c4c(c3Nc3cccc(Cl)c3OC)C(=O)NCC4)c2n1 [compound 829, 3-[(3-chloro-2-methoxyphenyl)amino]-2-(3-fluoro-6-methoxy-1,5-naphthyridin-4-yl)-1H,5H,6H,7H-pyrrolo[3,2-c]pyridin-4-one]	> 1000 nM		> 1000 nM	> 1000 nM	> 1000 nM

More lines, now with the values ahead:

IC50 [1]	IC50 [2]	IC50 [3]	IC50 [4]	IC50 [5]	Structure (SMILES)
100 to 1000 nM	< 100 nM	100 to 1000 nM	100 to 1000 nM		COC(=O)N1CCC2(CNC(=O)c3c2[nH]c(-c2ccncc2F)c3Nc2cccc(Cl)c2OC)C1 (single isomer, unassigned) [Compound 497]
> 1000 nM	> 1000 nM	> 1000 nM	> 1000 nM		COC(=O)N1CC2(CNC(=O)c3c2[nH]c(-c2ccncc2F)c3Nc2cccc(Cl)c2OC)C1 [Compound 490, methyl 3′-[(3-chloro-2-methoxyphenyl)amino]-2′-(3-fluoropyridin-4-yl)-4′-oxo-5′,6′-dihydro-1′H-spiro[azetidine-3,7′-pyrrolo[3,2-c]pyridine]-1-carboxylate]
> 1000 nM	100 to 1000 nM	> 1000 nM	> 1000 nM		COC(=O)N1CC[C@@]2(CNC(=O)c3c2[nH]c(-c2ccncc2F)c3Nc2cccc(Cl)c2OC)C1 [Compound 498, methyl (3R)-3′-[(3-chloro-2-methoxyphenyl)amino]-2′-(3-fluoropyridin-4-yl)-4′-oxo-5′,6′-dihydro-1′H-spiro[pyrrolidine-3,7′-pyrrolo[3,2-c]pyridine]-1-carboxylate]
> 1000 nM	> 1000 nM	> 1000 nM	> 1000 nM		CNC(=O)N1CC[C@@]2(CNC(=O)c3c2[nH]c(-c2ccncc2F)c3Nc2cccc(Cl)c2OC)C1 [Compound 499, (3R)-3′-[(3-chloro-2-methoxyphenyl)amino]-2′-(3-fluoropyridin-4-yl)-N-methyl-4′-oxo-5′,6′-dihydro-1′H-spiro[pyrrolidine-3,7′-pyrrolo[3,2-c]pyridine]-1-carboxamide]
> 1000 nM	> 1000 nM	> 1000 nM	> 1000 nM		CNC(=O)N1CC[C@]2(CNC(=O)c3c2[nH]c(-c2ccncc2F)c3Nc2cccc(Cl)c2OC)C1 [Compound 500, (3S)-3′-[(3-chloro-2-methoxyphenyl)amino]-2′-(3-fluoropyridin-4-yl)-N-methyl-4′-oxo-5′,6′-dihydro-1′H-spiro[pyrrolidine-3,7′-pyrrolo[3,2-c]pyridine]-1-carboxamide]
> 1000 nM	100 to 1000 nM	100 to 1000 nM	100 to 1000 nM		COc1c(Cl)cccc1Nc1c(-c2ccncc2F)[nH]c2c1C(=O)NCC21CCN(C(=O)/C=C/CN(C)C)CC1 [Compound 522, 3′-[(3-chloro-2-methoxyphenyl)amino]-1-[4-(dimethylamino)but-2-enoyl]-2′-(3-fluoropyridin-4-yl)-5′,6′-dihydro-1′H-spiro[piperidine-4,7′-pyrrolo[3,2-c]pyridin]-4′-one]
